# Values quoted from earlier work, collected in PMC10126514, “The interaction of peptide inhibitors and Aβ protein: Binding mode analysis, inhibition of the formation of Aβ aggregates, and then exert neuroprotective effects” (Frontiers in Aging Neuroscience, 2023).
# Conditions: ref Wang et al., 2019, Behl et al., 2020, Tolar et al.; cited from earlier work
compound,measurement,value
CCN(C)C(=O)Oc1cccc([C@H](C)N(C)C)c1 [rivastigmine],Potential side effects,"Diarrhea, vomiting, nausea, and abdominal cramps"
